Values quoted from earlier work, collected in paper PMC9851200, “Multiparameter phenotypic screening for endogenous TFEB and TFE3 translocation identifies novel chemical series modulating lysosome function” (Autophagy, 2022).

How the values were obtained:
Design in all cases: method as in original PKIS2 published data
[1] = target: T1, kinases (KINOMEscan panel) (Homo sapiens, UniProt Q9UQ88); conditions: Published KINOMEscan; ref original PKIS2 published data; cited from earlier work
T1 sequence (Q9UQ88 1-783): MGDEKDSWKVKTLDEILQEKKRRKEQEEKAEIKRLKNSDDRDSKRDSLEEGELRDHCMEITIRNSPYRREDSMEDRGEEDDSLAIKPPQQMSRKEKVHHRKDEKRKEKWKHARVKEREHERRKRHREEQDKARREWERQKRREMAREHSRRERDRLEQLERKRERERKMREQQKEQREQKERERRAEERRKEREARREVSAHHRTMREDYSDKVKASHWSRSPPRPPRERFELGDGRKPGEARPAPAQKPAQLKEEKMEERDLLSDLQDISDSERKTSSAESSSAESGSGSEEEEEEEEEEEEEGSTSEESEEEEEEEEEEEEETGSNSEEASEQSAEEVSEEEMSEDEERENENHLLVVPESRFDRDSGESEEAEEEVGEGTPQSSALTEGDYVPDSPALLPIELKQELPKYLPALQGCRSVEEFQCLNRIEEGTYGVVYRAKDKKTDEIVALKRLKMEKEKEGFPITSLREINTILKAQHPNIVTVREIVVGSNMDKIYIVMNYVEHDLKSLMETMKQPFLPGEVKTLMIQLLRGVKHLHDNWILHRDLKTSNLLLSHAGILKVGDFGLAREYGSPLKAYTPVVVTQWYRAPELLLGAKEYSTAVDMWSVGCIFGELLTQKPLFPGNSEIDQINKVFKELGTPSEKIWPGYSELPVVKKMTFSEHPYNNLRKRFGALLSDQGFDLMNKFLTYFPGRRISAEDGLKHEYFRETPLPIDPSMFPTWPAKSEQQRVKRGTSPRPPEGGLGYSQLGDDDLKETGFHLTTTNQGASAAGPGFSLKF

[2] = target: kinases (KINOMEscan panel) (Homo sapiens, UniProt O75116); conditions: kinase ROCK2; Published KINOMEscan; ref original PKIS2 published data; cited from earlier work
Chain of kinases (KINOMEscan panel) (Homo sapiens, UniProt O75116) (O75116 whole entry): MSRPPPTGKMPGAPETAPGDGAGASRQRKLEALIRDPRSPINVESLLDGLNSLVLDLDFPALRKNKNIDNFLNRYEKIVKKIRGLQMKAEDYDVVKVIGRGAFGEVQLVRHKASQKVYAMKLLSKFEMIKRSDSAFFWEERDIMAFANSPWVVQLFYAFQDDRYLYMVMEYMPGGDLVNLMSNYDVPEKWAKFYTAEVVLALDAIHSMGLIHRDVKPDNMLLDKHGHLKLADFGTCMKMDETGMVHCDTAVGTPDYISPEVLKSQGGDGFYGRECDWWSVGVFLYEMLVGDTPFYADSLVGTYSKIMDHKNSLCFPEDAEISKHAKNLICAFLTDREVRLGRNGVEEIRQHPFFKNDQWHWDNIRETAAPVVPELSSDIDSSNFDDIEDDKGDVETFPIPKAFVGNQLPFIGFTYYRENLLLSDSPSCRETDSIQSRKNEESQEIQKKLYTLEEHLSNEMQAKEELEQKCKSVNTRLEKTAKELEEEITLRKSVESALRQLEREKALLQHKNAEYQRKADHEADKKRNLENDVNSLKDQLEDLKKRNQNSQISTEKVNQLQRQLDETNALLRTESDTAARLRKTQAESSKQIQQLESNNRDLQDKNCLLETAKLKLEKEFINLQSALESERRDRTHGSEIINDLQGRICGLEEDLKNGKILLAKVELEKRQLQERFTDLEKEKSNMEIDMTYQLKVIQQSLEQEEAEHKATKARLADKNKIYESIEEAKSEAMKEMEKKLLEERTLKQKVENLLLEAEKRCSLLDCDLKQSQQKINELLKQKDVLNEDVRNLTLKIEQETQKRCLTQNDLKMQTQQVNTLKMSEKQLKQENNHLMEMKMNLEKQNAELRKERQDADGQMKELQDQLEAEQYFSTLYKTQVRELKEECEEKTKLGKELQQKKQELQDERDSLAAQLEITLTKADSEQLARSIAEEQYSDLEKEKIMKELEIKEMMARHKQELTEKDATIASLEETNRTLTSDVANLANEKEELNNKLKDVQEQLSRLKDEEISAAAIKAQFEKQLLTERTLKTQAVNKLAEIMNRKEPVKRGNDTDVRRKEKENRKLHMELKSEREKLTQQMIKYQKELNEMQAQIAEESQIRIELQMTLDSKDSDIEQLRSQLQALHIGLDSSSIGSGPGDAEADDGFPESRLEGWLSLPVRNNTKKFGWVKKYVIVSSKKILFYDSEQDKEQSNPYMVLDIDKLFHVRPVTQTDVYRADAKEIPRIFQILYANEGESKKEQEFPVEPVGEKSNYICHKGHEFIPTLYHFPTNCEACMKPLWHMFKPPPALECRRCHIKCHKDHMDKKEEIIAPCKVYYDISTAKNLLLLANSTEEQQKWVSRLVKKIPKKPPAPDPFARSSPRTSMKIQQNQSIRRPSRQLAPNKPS

[3] = target: T2, kinases (KINOMEscan panel) (Homo sapiens, UniProt Q8IYT8); conditions: Published KINOMEscan; ref original PKIS2 published data; cited from earlier work
T2 sequence (Q8IYT8 1-1036): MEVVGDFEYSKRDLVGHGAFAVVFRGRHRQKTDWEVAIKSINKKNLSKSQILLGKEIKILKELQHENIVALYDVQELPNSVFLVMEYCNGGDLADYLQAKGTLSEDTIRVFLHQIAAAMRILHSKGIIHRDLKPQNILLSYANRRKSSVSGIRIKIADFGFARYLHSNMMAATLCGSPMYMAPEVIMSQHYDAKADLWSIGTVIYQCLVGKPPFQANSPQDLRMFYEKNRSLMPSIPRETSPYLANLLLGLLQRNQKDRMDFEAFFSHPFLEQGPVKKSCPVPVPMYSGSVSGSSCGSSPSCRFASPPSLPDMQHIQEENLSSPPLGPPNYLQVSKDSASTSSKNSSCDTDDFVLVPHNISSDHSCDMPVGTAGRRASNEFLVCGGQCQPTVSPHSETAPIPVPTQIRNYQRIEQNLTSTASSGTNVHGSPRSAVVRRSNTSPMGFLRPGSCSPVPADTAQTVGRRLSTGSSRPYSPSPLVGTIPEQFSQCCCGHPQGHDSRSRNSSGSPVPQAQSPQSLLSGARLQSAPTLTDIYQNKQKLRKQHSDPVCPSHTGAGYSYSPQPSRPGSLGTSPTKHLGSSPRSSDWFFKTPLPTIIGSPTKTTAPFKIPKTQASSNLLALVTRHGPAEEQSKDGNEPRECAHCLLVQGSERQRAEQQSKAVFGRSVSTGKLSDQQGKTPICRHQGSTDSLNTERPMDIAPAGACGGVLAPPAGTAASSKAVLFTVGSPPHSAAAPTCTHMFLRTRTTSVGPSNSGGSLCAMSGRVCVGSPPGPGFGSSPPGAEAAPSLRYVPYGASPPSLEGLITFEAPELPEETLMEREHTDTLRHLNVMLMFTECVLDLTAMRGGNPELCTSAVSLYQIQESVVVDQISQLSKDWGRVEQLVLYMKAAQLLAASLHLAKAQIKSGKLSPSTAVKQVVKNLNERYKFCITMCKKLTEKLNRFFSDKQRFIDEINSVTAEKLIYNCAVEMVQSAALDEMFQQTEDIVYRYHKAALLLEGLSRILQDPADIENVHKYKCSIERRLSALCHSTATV

[4] = target: T3, kinases (KINOMEscan panel) (Homo sapiens, UniProt Q9UKI8); conditions: kinase TLK1; Published KINOMEscan; ref original PKIS2 published data; cited from earlier work
T3 sequence (Q9UKI8 1-766): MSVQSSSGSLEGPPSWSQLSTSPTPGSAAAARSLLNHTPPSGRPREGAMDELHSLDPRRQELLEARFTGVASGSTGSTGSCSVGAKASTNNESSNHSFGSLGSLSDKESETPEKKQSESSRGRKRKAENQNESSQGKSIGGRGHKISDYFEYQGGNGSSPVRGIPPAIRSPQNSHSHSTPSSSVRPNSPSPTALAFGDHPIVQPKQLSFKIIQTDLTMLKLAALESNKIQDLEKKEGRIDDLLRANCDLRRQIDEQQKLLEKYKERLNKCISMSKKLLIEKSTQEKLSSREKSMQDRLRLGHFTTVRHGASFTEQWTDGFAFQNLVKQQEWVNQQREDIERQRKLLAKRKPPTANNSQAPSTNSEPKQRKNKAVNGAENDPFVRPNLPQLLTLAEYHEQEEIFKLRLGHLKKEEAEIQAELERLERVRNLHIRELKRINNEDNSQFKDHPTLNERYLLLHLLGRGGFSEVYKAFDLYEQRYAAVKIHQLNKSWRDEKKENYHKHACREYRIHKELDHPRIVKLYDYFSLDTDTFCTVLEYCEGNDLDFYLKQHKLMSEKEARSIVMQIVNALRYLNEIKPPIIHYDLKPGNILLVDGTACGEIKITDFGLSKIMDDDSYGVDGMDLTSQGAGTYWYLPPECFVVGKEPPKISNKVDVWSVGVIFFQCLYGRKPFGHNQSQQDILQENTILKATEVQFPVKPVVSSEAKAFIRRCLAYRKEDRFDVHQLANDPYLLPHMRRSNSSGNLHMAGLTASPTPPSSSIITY

[5] = target: kinases (KINOMEscan panel) (Homo sapiens, UniProt P10721); conditions: Published KINOMEscan, ref original PKIS2 published data, cited from earlier work
Chain of kinases (KINOMEscan panel) (Homo sapiens, UniProt P10721) (P10721 26-976): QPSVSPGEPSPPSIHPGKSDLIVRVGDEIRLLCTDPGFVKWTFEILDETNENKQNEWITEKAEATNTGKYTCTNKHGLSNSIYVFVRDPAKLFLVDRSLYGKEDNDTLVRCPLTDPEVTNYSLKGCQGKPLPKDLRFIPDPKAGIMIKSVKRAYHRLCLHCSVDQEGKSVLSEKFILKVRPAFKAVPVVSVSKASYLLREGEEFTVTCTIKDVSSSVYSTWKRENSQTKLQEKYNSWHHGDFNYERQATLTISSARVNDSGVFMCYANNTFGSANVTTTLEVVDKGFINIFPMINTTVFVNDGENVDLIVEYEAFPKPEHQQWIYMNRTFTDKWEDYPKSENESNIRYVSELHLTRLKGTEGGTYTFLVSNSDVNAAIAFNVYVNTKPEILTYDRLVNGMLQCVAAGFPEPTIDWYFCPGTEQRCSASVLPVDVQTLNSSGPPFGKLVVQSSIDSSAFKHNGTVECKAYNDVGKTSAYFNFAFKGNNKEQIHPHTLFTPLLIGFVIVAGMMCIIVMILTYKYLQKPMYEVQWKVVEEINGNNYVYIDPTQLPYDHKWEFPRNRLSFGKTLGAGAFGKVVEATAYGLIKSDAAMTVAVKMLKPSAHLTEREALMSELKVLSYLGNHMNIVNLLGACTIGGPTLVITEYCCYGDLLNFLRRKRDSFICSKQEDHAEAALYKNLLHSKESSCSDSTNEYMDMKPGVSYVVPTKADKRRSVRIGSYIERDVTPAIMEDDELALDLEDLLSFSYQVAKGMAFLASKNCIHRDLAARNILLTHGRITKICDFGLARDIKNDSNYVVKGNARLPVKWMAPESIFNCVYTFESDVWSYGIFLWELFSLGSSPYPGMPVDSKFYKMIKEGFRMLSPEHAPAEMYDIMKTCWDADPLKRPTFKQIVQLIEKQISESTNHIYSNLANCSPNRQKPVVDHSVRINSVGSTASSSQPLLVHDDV

Cc1cccc(-c2nc(Nc3ccncc3)c3ccccc3n2)n1 [NK215]
KINOMEscan CDK11A [1]: 0 | KINOMEscan ROCK2 [2]: 0 | KINOMEscan ULK2 [3]: 0 | KINOMEscan TLK1 [4]: 0 | KINOMEscan KIT-autoinhibited ([5]; KIT-autoinhibited): 0 | KINOMEscan KIT ([5]; KIT): 10
